# The supplement of paper PMC10307832
# Tests used:
# Experiment in all cases: relative viability (nuclei count vs DMSO), 5 days (fraction); higher = more cells survive
# Alpelisib + Pictilisib = compound: Cc1nc(NC(=O)N2CCC[C@H]2C(N)=O)sc1-c1ccnc(C(C)(C)C(F)(F)F)c1 [Alpelisib] + CS(=O)(=O)N1CCN(Cc2cc3nc(-c4cccc5[nH]ncc45)nc(N4CCOCC4)c3s2)CC1 [Pictilisib] (partner 1 µM)
# Outline: (§1)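 Cells from lung cancer lines were seeded into 1536-well plates and, one day later, dosed by pin tool. Treatments were either a single drug or a fixed dose of an anchor drug with five library-drug doses (not always all listed) in √10 steps. After 5 days, nuclei were stained in a one-step fixation (final 0.05% Triton X-100, 1% formaldehyde, 1 ug/ml Hoechst) and counted on 4× images, and relative viability is the treated-to-vehicle nuclei ratio, as the median of duplicate plates.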
# Alpelisib + Crizotinib = compound: Cc1nc(NC(=O)N2CCC[C@H]2C(N)=O)sc1-c1ccnc(C(C)(C)C(F)(F)F)c1 [Alpelisib] + C[C@@H](Oc1cc(-c2cnn(C3CCNCC3)c2)cnc1N)c1c(Cl)ccc(F)c1Cl [Crizotinib] (partner 1 µM)
# Outline: as §1
# Alpelisib + Pemetrexed = compound: Cc1nc(NC(=O)N2CCC[C@H]2C(N)=O)sc1-c1ccnc(C(C)(C)C(F)(F)F)c1 [Alpelisib] + Nc1nc2[nH]cc(CCc3ccc(C(=O)N[C@@H](CCC(=O)O)C(=O)O)cc3)c2c(=O)[nH]1 [Pemetrexed] (partner 0.2 µM)
# Outline: as §1
# Alpelisib + Olaparib = compound: Cc1nc(NC(=O)N2CCC[C@H]2C(N)=O)sc1-c1ccnc(C(C)(C)C(F)(F)F)c1 [Alpelisib] + O=C(c1cc(Cc2n[nH]c(=O)c3ccccc23)ccc1F)N1CCN(C(=O)C2CC2)CC1 [Olaparib] (partner 8 µM)
# Outline: as §1
Cell Line,relative viability (Alpelisib + Pictilisib; first compound 0.04 µM),relative viability (Alpelisib + Pictilisib; first compound 0.1265 µM),relative viability (Alpelisib + Pictilisib; first compound 0.4 µM),relative viability (Alpelisib + Pictilisib; first compound 1.265 µM),relative viability (Alpelisib + Pictilisib; first compound 4 µM),relative viability (Alpelisib + Crizotinib; first compound 0.04 µM),relative viability (Alpelisib + Crizotinib; first compound 0.1265 µM),relative viability (Alpelisib + Crizotinib; first compound 0.4 µM),relative viability (Alpelisib + Crizotinib; first compound 1.265 µM),relative viability (Alpelisib + Crizotinib; first compound 4 µM),relative viability (Alpelisib + Pemetrexed; first compound 0.04 µM),relative viability (Alpelisib + Pemetrexed; first compound 0.1265 µM),relative viability (Alpelisib + Pemetrexed; first compound 0.4 µM),relative viability (Alpelisib + Pemetrexed; first compound 1.265 µM),relative viability (Alpelisib + Pemetrexed; first compound 4 µM),relative viability (Alpelisib + Olaparib; first compound 0.04 µM),relative viability (Alpelisib + Olaparib; first compound 0.1265 µM),relative viability (Alpelisib + Olaparib; first compound 0.4 µM),relative viability (Alpelisib + Olaparib; first compound 1.265 µM),relative viability (Alpelisib + Olaparib; first compound 4 µM)
NCI-H1355,0.444,0.568,0.436,0.521,0.425,1.07,1.11,1.09,0.809,0.824,1.03,1.03,1.01,0.934,0.926,0.747,0.727,0.807,0.629,0.519
HCC-827,0.887,1.18,0.933,0.973,0.651,0.927,0.884,0.949,0.91,0.88,0.277,0.285,0.278,0.225,0.143,0.601,0.678,0.768,0.499,0.503
NCI-H2085,0.503,0.549,0.518,0.427,0.426,0.808,0.769,0.758,0.814,0.796,0.848,0.847,0.86,0.865,0.803,0.754,0.75,0.794,0.733,0.711
NCI-H1755,0.451,0.309,0.427,0.456,0.363,0.828,0.819,0.966,0.801,0.578,0.409,0.432,0.437,0.371,0.402,0.928,0.892,0.917,0.818,0.788
PC-14,0.703,0.858,0.898,0.6,0.611,0.817,0.893,1.04,0.842,0.766,0.157,0.145,0.134,0.137,0.138,0.263,0.348,0.512,0.276,0.295
NCI-H3122,0.622,0.69,0.572,0.58,0.53,0.27,0.308,0.227,0.196,0.2,0.208,0.208,0.204,0.197,0.173,0.644,0.657,0.668,0.647,0.508
SK-LU-1,0.592,0.484,0.656,0.594,0.536,0.987,0.792,1.01,0.773,0.763,1.04,0.987,0.938,0.909,0.955,0.491,0.472,0.532,0.378,0.41
HCC-44,0.669,0.654,0.822,0.491,0.441,0.78,0.723,0.833,0.773,0.634,0.65,0.706,0.698,0.65,0.619,0.979,0.943,1.07,0.979,0.936
NCI-H460,0.388,0.389,0.378,0.345,0.297,0.855,1.02,0.926,0.285,0.296,0.0625,0.0624,0.0552,0.0558,0.033,0.446,0.501,0.496,0.42,0.375
NCI-H1915,0.925,0.987,1.02,0.908,0.766,0.903,0.936,0.988,0.78,0.8,0.498,0.527,0.525,0.49,0.428,0.264,0.288,0.303,0.236,0.235
NCI-H2126,0.499,0.506,0.496,0.491,0.501,1.02,0.957,0.992,0.88,0.735,0.686,0.752,0.674,0.584,0.509,0.887,0.864,0.871,0.76,0.659
EPLC-272H,0.338,0.282,0.298,0.336,0.262,0.75,0.788,1.09,0.713,0.653,0.394,0.363,0.355,0.276,0.238,0.936,0.838,0.75,0.393,0.485
LCLC-103H,0.721,0.695,0.506,0.56,0.526,0.928,0.976,1.05,0.899,0.787,0.476,0.488,0.506,0.47,0.333,0.766,0.787,0.744,0.603,0.497
NCI-H661,0.374,0.367,0.475,0.506,0.346,0.968,0.96,1.07,1.01,0.937,0.941,1.01,0.961,0.915,0.796,0.734,0.773,0.878,0.732,0.749
PC-3 [JPC-3],0.76,0.715,0.737,0.767,0.676,1.03,1.05,1.07,0.901,0.969,1.23,0.559,1.12,0.969,0.801,1.23,1.1,1.24,0.967,1.02
NCI-H2087,0.801,0.847,1.01,0.827,0.659,0.781,0.892,0.958,0.732,0.658,0.634,0.625,0.679,0.65,0.606,0.557,0.514,0.653,0.483,0.444
